Assay results taken from PMC5862990, “Dynamical origins of heat capacity changes in enzyme-catalysed reactions” (Nature Communications, 2018).

Biological target: T1, MalL (Bacillus subtilis, UniProt O06994)
T1 construct: wild-type, recombinant, monomeric
Assay: X-ray co-crystal structure
Assay type: binding
Details: co-crystallised with 0.5 mM ligand, 18 °C; active site; transition-state analogue

T1 sequence (O06994 whole entry): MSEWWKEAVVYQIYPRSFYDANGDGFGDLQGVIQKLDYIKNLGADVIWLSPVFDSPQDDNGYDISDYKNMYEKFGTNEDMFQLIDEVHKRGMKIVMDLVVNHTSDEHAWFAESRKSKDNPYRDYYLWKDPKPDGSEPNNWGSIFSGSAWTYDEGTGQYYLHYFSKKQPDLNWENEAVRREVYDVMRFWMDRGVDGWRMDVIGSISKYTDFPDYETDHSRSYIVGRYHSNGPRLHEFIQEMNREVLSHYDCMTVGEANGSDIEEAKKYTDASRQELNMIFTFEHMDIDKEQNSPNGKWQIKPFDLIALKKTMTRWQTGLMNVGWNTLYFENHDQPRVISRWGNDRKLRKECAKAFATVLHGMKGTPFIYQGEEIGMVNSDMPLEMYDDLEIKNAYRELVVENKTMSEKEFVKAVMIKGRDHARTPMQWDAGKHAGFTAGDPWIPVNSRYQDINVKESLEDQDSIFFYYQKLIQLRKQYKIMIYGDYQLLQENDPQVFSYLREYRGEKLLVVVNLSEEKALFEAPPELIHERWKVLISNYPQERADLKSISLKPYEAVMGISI

Compound: OC[C@H]1NC[C@H](O)[C@@H](O)[C@@H]1O [1-deoxynojirimycin]
- X-ray co-crystal structure: Coordinates and structure factors for MalL co-crystallised with 1-deoxynojirimycin are deposited in the PDB
